According to patent US8637537B2, “Serine/threonine kinase inhibitors” (Genentech, Inc., priority 2011, dated 2014):
Structures can show the parent of a compound that is named as a salt. Where two headings read alike, the source gives them in different places.

Biological target: T1, human recombinant GST-PAK1-KD protein (Homo sapiens, UniProt Q13153)
T1 construct: residues #249-545 of human PAK1, UniProtKP/Swiss Q13153; His6 (N); made in house; host or cells: Sf9 insect cells, pAcGP67 baculovirus expression vector
T1 sequence (Q13153 249-545): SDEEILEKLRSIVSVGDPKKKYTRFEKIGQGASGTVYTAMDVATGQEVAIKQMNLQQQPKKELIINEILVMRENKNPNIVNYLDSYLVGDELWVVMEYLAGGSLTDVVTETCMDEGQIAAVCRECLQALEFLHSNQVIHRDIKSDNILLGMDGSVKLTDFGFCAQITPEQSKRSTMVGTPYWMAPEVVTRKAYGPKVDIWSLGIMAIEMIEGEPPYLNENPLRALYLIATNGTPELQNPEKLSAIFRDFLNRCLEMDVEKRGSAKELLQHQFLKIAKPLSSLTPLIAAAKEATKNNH
Assay: GST-PAK1-KD (kinase domain) biochemical assay, microfluidic mobility shift

[1] = Table II, PAK1 Ki class, read-out: Ki
[2] = Table I, PAK1 Ki class, read-out: Ki

| Ki [1] [nM] | Ki [2] [nM] | Compound | also measured |
| --- | --- | --- | --- |
| < 50 | – | CC(C)N(Cc1cc(F)cc2[nH]ncc12)c1ncc(F)c(Nc2cc(C3CC3)[nH]n2)n1 [II-96, N^4-(5-cyclopropyl-1H-pyrazol-3-yl)-5-fluoro-N^2-((6-fluoro-1H-indazol-4-yl)methyl)-N^2-isopropylpyrimidine-2,4-diamine] | – |
| – | 250 to 1000 | Fc1ccc(CNc2nccc(Nc3cc(C4CC4)[nH]n3)n2)c2cc[nH]c12 [I-47, N^4-(5-cyclopropyl-1H-pyrazol-3-yl)-N^2-((7-fluoro-1H-indol-4-yl)methyl)pyrimidine-2,4-diamine] | – |
| < 50 | – | Fc1cc(CNc2nccc(Nc3cc([C@@H]4CC4(F)F)[nH]n3)n2)c2cn[nH]c2c1 [II-65, (S)-N^4-(5-(2,2-difluorocyclopropyl)-1H-pyrazol-3-yl)-N^2-((6-fluoro-1H-indazol-4-yl)methyl)pyrimidine-2,4-diamine] | – |
| – | < 50 | C[C@H](Nc1nc(Nc2cc(C3CC3)[nH]n2)cc(C(C)(C)O)n1)c1ccc2[nH]ccc2c1 [I-83, (S)-2-(2-(1-(1H-indol-5-yl)ethylamino)-6-(5-cyclopropyl-1H-pyrazol-3-ylamino)pyrimidin-4-yl)propan-2-ol] | – |
| – | < 50 | C[C@@H](c1ccc2[nH]cnc2c1)N(C)c1nccc(Nc2cc(C3CC3)[nH]n2)n1 [I-9, (S)—N^2-(1-(1H-benzo[d]imidazol-5-yl)ethyl)-N^4-(5-cyclopropyl-1H-pyrazol-3-yl)-N^2-methylpyrimidine-2,4-diamine] | – |
| 50 to 250 | – | Cc1nc2c(CNc3nccc(Nc4cc(C5CC5)[nH]n4)n3)cc(F)cc2[nH]1 [II-34, N^4-(5-Cyclopropyl-1H-pyrazol-3-yl)-N^2-((6-fluoro-2-methyl-1H-benzo[d]imidazol-4-yl)-methyl)pyrimidine-2,4-diamine] | – |
| – | 50 to 250 | Clc1c(CNc2nccc(Nc3cc(C4CC4)[nH]n3)n2)ccc2[nH]ccc12 [I-20, N^2-((4-chloro-1H-indol-5-yl)methyl)-N^4-(5-cyclopropyl-1H-pyrazol-3-yl)pyrimidine-2,4-diamine] | – |
| – | 250 to 1000 | Cc1cc(Nc2cc(C3CC3)[nH]n2)nc(NCc2cc(F)cc3[nH]ccc23)n1 [I-89, N^4-(5-Cyclopropyl-1H-pyrazol-3-yl)-N^2-((6-fluoro-1H-indol-4-yl)methyl)-6-methylpyrimidine-2,4-diamine Formate] | – |
| < 50 | – | Cc1n[nH]c2cc(Cl)cc(CNc3nccc(Nc4cc(C5CC5)[nH]n4)n3)c12 [II-12, N^2-((6-Chloro-3-methyl-1H-indazol-4-yl)methyl)-N^4-(5-cyclopropyl-1H-pyrazol-3-yl)pyrimidine-2,4-diamine] | – |
| – | 50 to 250 | C[C@H](Nc1nc(Nc2cc(C3CC3)[nH]n2)cc(C(F)(F)F)n1)c1ccc2[nH]ccc2c1 [I-18, (S)—N^2-(1-(1H-indol-5-yl)ethyl)-N^4-(5-cyclopropyl-1H-pyrazol-3-yl)-6-(trifluoromethyl) pyrimidine-2,4-diamine] | – |
| – | – | COc1n[nH]c2cccc(CN(C)c3nccc(Nc4cc(C5CC5)[nH]n4)n3)c12 [II-30, N^4-(5-cyclopropyl-1H-pyrazol-3-yl)-N^2-((3-methoxy-1H-indazol-4-yl)methyl)-N^2-methylpyrimidine-2,4-diamine] | Ki: 50 to 250 nM |
| – | 50 to 250 | CC(C)(O)c1cc(Nc2cc(C3CC3)[nH]n2)nc(NCc2cccc3[nH]ccc23)n1 [I-85, 2-(2-((1H-indol-4-yl)methylamino)-6-(5-cyclopropyl-1H-pyrazol-3-ylamino)pyrimidin-4-yl)propan-2-ol] | – |
| – | 250 to 1000 | Cc1cnc(N[C@@H](C)c2ccc3[nH]ccc3c2)nc1Nc1cc(C2CC2)[nH]n1 [I-31, (S)—N^2-(1-(1H-indol-5-yl)ethyl)-N^4-(5-cyclopropyl-1H-pyrazol-3-yl)-5-methylpyrimidine-2,4-diamine] | – |
| – | 250 to 1000 | CC[C@@H](Nc1nccc(Nc2cc(C3CC3)[nH]n2)n1)c1ccc2[nH]cnc2c1 [I-43, N^2-[(1R)-1-(1H-benzimidazol-5-yl)propyl]-N^4-(5-cyclopropyl-1H-pyrazol-3-yl)pyrimidine-2,4-diamine] | – |
| – | 50 to 250 | C[C@H](Nc1ncc(F)c(Nc2cc(C3CC3)[nH]n2)n1)c1cccc2[nH]ccc12 [I-99, N^4-(5-cyclopropyl-1H-pyrazol-3-yl)-5-fluoro-N^2-[(1S)-1-(1H-indol-4-yl)ethyl]pyrimidine-2,4-diamine] | – |
| < 50 | – | CC(C)N(Cc1cc(F)cc2[nH]ncc12)c1nccc(Nc2cc(C3CC3)[nH]n2)n1 [II-63, N^4-(5-cyclopropyl-1H-pyrazol-3-yl)-N^2-((6-fluoro-1H-indazol-4-yl)methyl)-N^2-isopropylpyrimidine-2,4-diamine] | – |
| – | < 50 | F[C@@H]1C[C@@H]1c1cc(Nc2ccnc(NCc3ccc4[nH]cnc4c3Cl)n2)n[nH]1 [I-77, N^2-((4-chloro-1H-benzo[d]imidazol-5-yl)methyl)-N^4-(5-((1R,2R)-2-fluorocyclopropyl)-1H-pyrazol-3-yl)pyrimidine-2,4-diamine] | – |
| – | 250 to 1000 | Fc1ccccc1[C@H]1C[C@@H]1c1cc(Nc2ccnc(NCc3cccc4[nH]ccc34)n2)n[nH]1 (racemic) [I-118, N^2-((1H-indol-4-yl)methyl)-N^4-(5-(trans-2-(2-fluorophenyl)cyclopropyl)-1H-pyrazol-3-yl)pyrimidine-2,4-diamine] | – |

| Ki [1] [nM] | Ki [2] [nM] | Compound | also measured |
| --- | --- | --- | --- |
| – | 250 to 1000 | c1cc(Nc2cc(C3CC3)[nH]n2)nc(NCc2ccc3[nH]ncc3c2)n1 [I-102, N^4-(5-cyclopropyl-1H-pyrazol-3-yl)-N^2-(1H-indazol-5-ylmethyl)pyrimidine-2,4-diamine] | – |
| – | 250 to 1000 | C[C@H](Nc1ncc(Cl)c(Nc2cc(C3CC3)[nH]n2)n1)c1ccc2[nH]ccc2c1 [I-110, (S)—N^2-(1-(1H-indol-5-yl)ethyl)-5-chloro-N^4-(5-cyclopropyl-1H-pyrazol-3-yl)pyrimidine-2,4-diamine] | – |
| 50 to 250 | – | CN(Cc1ccc2[nH]cnc2c1Cl)c1ncc(F)c(Nc2cc(C(F)(F)F)[nH]n2)n1 [II-39, N^2-((4-Chloro-1H-benzo[d]imidazol-5-yl)methyl)-5-fluoro-N^4-(5-(trifluoromethyl)-1H-pyrazol-3-yl)-N2-methylpyrimidine-2,4-diamine] | – |
| – | 50 to 250 | c1cc(CNc2nccc(Nc3cc(C4CCCC4)[nH]n3)n2)c2cc[nH]c2c1 [I-50, N^2-((1H-indol-4-yl)methyl)-N^4-(5-cyclopentyl-1H-pyrazol-3-yl)pyrimidine-2,4-diamine] | – |
| 50 to 250 | – | c1cc(CNc2nccc(Nc3cc(C4COC4)[nH]n3)n2)c2cc[nH]c2c1 [II-9, N^2-(1H-indol-4-ylmethyl)-N^4-[5-(oxetan-3-yl)-1H-pyrazol-3-yl]pyrimidine-2,4-diamine] | – |
| – | 250 to 1000 | Cc1cc2[nH]cnc2cc1CNc1nccc(Nc2cc(C3CC3)[nH]n2)n1 [I-30, N^4-(5-Cyclopropyl-1H-pyrazol-3-yl)-N^2-[(6-methyl-1H-benzimidazol-5-yl)methyl]pyrimidine-2,4-diamine] | – |
| < 50 | – | FC(F)(F)c1cc(CNc2nccc(Nc3cc(C4CC4)[nH]n3)n2)c2cn[nH]c2c1 [II-99, N^4-(5-Cyclopropyl-1H-pyrazol-3-yl)-N^2-((6-(trifluoromethyl)-1H-indazol-4-yl)methyl)pyrimidine-2,4-diamine] | – |
| 50 to 250 | – | C[C@H](Nc1nccc(Nc2cc(C3CC3)[nH]n2)n1)c1cc(F)cc2c1cnn2C [II-40, (S)-N^4-(5-cyclopropyl-1H-pyrazol-3-yl)-N^2-(1-(6-fluoro-1-methyl-1H-indazol-4-yl)ethyl)pyrimidine-2,4-diamine] | – |
| – | 50 to 250 | c1cc(CNc2nccc(Nc3cc(C4CCOC4)[nH]n3)n2)c2cc[nH]c2c1 (stereo not drawn) [I-51, N^2-((1H-indol-4-yl)methyl)-N^4-(5-(tetrahydrofuran-3-yl)-1H-pyrazol-3-yl)pyrimidine-2,4-diamine] | – |
| < 50 | – | C[C@H](Nc1nccc(Nc2cc(C3CC3)[nH]n2)n1)c1cc(F)cc2[nH]ncc12 [II-53, (S)-N^4-(5-cyclopropyl-1H-pyrazol-3-yl)-N^2-(1-(6-fluoro-1H-indazol-4-yl)ethyl)pyrimidine-2,4-diamine] | – |
| < 50 | – | CN(Cc1cc(Cl)cc2[nH]cnc12)c1nccc(Nc2cc(C3CC3)[nH]n2)n1 [II-14, N^2-((6-Chloro-1H-benzo[d]imidazol-4-yl)methyl)-N^4-(5-cyclopropyl-1H-pyrazol-3-yl)-N^2-methylpyrimidine-2,4-diamine] | – |
| – | < 50 | Fc1cc(CNc2nccc(Nc3cc(C4CCC4)[nH]n3)n2)c2cc[nH]c2c1 [I-88, N^4-(5-Cyclobutyl-1H-pyrazol-3-yl)-N^2-((6-fluoro-1H-indol-4-yl)methyl)pyrimidine-2,4-diamine Formate] | – |
| – | > 1000 | c1cc(Nc2cc(C3CC3)[nH]n2)nc(NCc2ccc3cn[nH]c3c2)n1 [I-103, N^4-(5-cyclopropyl-1H-pyrazol-3-yl)-N^2-(1H-indazol-6-ylmethyl)pyrimidine-2,4-diamine] | – |
| < 50 | – | CN(Cc1cc(F)cc2[nH]ncc12)c1nccc(Nc2cc(C3CC3)[nH]n2)n1 [II-58, N^4-(5-cyclopropyl-1H-pyrazol-3-yl)-N^2-((6-fluoro-1H-indazol-4-yl)methyl)-N^2-methylpyrimidine-2,4-diamine] | – |
| – | 250 to 1000 | c1cc(CNc2nccc(Nc3cc(OCC4CC4)[nH]n3)n2)c2cc[nH]c2c1 [I-42, N^2-((1H-indol-4-yl)methyl)-N^4(5-(cyclopropylmethoxy)-1H-pyrazol-3-yl)pyrimidine-2,4-diamine] | – |
| – | > 1000 | c1cc(Nc2cc(C3CC3)[nH]n2)nc(NCc2ccc3cc[nH]c3c2)n1 [I-35, N^2-((1H-Indol-6-yl)methyl)-N^4-(5-cyclopropyl-1H-pyrazol-3-yl)pyrimidine-2,4-diamine] | – |
| 50 to 250 | – | CN(C)CCN(Cc1ccc2[nH]cnc2c1)c1nccc(Nc2cc(C3CC3)[nH]n2)n1 [II-105, N^2-((1H-benzo[d]imidazol-5-yl)methyl)-N^4-(5-cyclopropyl-1H-pyrazol-3-yl)-N^2-(2-(dimethylamino)ethyl)pyrimidine-2,4-diamine] | – |
| – | < 50 | CC(C)(O)c1cc(Nc2cc(C3CC3)[nH]n2)nc(NCc2ccc3[nH]cnc3c2Cl)n1 [I-84, 2-(2-((4-chloro-1H-benzo[d]imidazol-5-yl)methylamino)-6-(5-cyclopropyl-1H-pyrazol-3-ylamino)pyrimidin-4-yl)propan-2-ol] | – |
